The values below come from patent US9868766B2, “Peptides as oxytocin agonists” (Hoffmann-La Roche Inc., priority 2012, dated 2018).

Positions of bridges follow the written chain, without caps; N, C: chain ends. Non-standard residues stand in square brackets, D forms with d. Residues, ends and D or L forms follow the SMILES beside them. Phe(4-NH2) = Nc1ccc(C[C@H](N)C(=O)O)cc1; Hyp = O=C(O)[C@@H]1C[C@@H](O)CN1; Cha = N[C@@H](CC1CCCCC1)C(=O)O; Dab = NCC[C@H](N)C(=O)O; Sar = CNCC(=O)O Bounds are passed on as bounds.

Common to all, as to assay type: cell-based
Assay [1] addresses T1, human Oxytocin (OTR) receptor (Homo sapiens, UniProt P30559).
T1 construct: expressed in transfected cells
T1 sequence (P30559 1-389): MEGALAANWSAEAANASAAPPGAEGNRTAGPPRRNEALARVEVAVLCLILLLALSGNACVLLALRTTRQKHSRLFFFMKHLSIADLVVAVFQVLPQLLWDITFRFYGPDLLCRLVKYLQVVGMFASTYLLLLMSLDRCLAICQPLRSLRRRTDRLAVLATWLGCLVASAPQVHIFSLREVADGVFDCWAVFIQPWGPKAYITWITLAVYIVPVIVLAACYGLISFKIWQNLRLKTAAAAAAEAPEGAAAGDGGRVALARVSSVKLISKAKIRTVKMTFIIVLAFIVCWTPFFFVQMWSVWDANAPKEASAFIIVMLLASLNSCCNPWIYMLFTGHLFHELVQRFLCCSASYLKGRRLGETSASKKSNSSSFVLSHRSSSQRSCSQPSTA
In words: Calcium flux assay (FLIPR), agonist mode, CHO cells expressing human OTR. Particulars: for EC50: CHO cells stably expressing human OTR, calcium flux, read-out: hOT EC50; for hOT efficacy (%) / Emax: maximum response normalized to endogenous full agonist = 100%; for Emax: CHO, read-out: hOT efficacy (%). From the text: (§1) Chines Hamster Ovary (CHO) cells were transfected with expression plasmids encoding either the human V1a, the human Oxytocin (OTR) or the humanV2 receptor, the later in combination with the chimeric Gqs5 G protein to redirect the signal to Calcium flux. Stable cells were cloned by limiting dilution to yield monoclonal cell lines expressing either human V1a, human V2+Gqs5 or human OTR receptors and selected based on functional responses detected on a fluorometric imaging plate reader (FLIPR) detecting Calcium flux in the cell after receptor activation.
On the afternoon before the assay, cells were plated at a density of 50,000 cells/well into black 96 well plates with clear bottoms to allow cell inspection and fluorescence measurements from the bottom of each well. The density of cells was sufficient to yield a confluent monolayer the next day. Hanks balanced salt solution, without phenol red, containing 20 mM HEPES (pH 7.3) and 2.5 mM probenecid (assay buffer) was prepared fresh for each experiment. Compound dilutions were made using a Beckman Biomek 2000 laboratory automation workstation, in assay buffer containing 1% DMSO. The dye-loading buffer consisted of a final concentration of 2 μM Fluo-4-AM (dissolved in DMSO and pluronic acid) in assay buffer. […] Once dye-loaded, the cells were washed thoroughly on an Embla cell washer with the assay buffer to remove any unincorporated dye. Exactly 100 μl assay buffer was left in each well.
Each 96 well plate containing dye-loaded cells was placed into the FLIPR machine and the laser intensity set to a suitable level to detect low basal fluorescence. To test compounds as agonists, 25 μl diluted compound was added to the plate 10 seconds into the fluorescent measurements and fluorescent response was recorded for 5 minutes. The fluorescence data was normalized to the endogenous full agonist dose-response set at 100% for the maximum response and 0% for the minimum. […] The concentration of agonist that produced a half-maximal response is represented by the EC50 value, the logarithm of which yielded the pEC50 value.
On the technique in general: Calcium assays in cells follow changes in intracellular calcium, usually with a dye or a luminescent sensor.

The next assay concerns the target T2, human V2 receptor (Homo sapiens, UniProt P30518).
T2 construct: expressed in transfected cells
Description: Calcium flux assay (FLIPR), agonist mode, CHO cells expressing human V2 + Gqs5. To be noted: for EC50: CHO cells stably expressing human V2 + chimeric Gqs5, calcium flux, read-out: hV2 EC50; for Emax: CHO, read-out: hV2 efficacy (%).
Text: as §1, with “activation. The stable cell lines were grown in F-12 K Nutrient Mixture (Kaighns Modification), containing 10% foetal bovine serum (FBS), 1% penicillin-streptomycin, 1% L-glutamate, 200 ug/ml Geneticin at 37° C. in a 10% CO2 incubator at 95% humidity.” for “activation.”
(§2) On the afternoon before the assay, cells were plated at a density of 50,000 cells/well into black 96 well plates with clear bottoms to allow cell inspection and fluorescence measurements from the bottom of each well. The density of cells was sufficient to yield a confluent monolayer the next day. Hanks balanced salt solution, without phenol red, containing 20 mM HEPES (pH 7.3) and 2.5 mM probenecid (assay buffer) was prepared fresh for each experiment. Compound dilutions were made using a Beckman Biomek 2000 laboratory automation workstation, in assay buffer containing 1% DMSO. The dye-loading buffer consisted of a final concentration of 2 μM Fluo-4-AM (dissolved in DMSO and pluronic acid) in assay buffer. The existing culture media was removed from the wells and 100 μl of the dye-loading buffer was added to each well and incubated for approximately 60 min at 37° C. in a 5% CO2 incubator at 95% humidity. Once dye-loaded, the cells were washed thoroughly on an Embla cell washer with the assay buffer to remove any unincorporated dye. Exactly 100 μl assay buffer was left in each well.
(§3) Each 96 well plate containing dye-loaded cells was placed into the FLIPR machine and the laser intensity set to a suitable level to detect low basal fluorescence. To test compounds as agonists, 25 μl diluted compound was added to the plate 10 seconds into the fluorescent measurements and fluorescent response was recorded for 5 minutes. The fluorescence data was normalized to the endogenous full agonist dose-response set at 100% for the maximum response and 0% for the minimum. Each agonist concentration-response curve was constructed using a four parameter logistic equation with Microsoft Excel XLFit as follows: Y=Minimum+((Maximum−Minimum)/(1+10^(Log EC50-X)nH)), where y is the % normalized fluorescence, minimum is the minimum y, maximum is the maximum y, log EC50 is the log10 concentration which produces 50% of the maximum induced fluorescence, x is the log10 of the concentration of the agonist compound and H is the slope of the curve (the Hill Coefficient). The maximum value gives the efficacy of the agonist test compound in percentage. The concentration of agonist that produced a half-maximal response is represented by the EC50 value, the logarithm of which yielded the pEC50 value.

Another assay deals with T3, human V1a receptor (Homo sapiens, UniProt P37288).
T3 construct: expressed in transfected cells
T3 sequence (P37288 whole entry): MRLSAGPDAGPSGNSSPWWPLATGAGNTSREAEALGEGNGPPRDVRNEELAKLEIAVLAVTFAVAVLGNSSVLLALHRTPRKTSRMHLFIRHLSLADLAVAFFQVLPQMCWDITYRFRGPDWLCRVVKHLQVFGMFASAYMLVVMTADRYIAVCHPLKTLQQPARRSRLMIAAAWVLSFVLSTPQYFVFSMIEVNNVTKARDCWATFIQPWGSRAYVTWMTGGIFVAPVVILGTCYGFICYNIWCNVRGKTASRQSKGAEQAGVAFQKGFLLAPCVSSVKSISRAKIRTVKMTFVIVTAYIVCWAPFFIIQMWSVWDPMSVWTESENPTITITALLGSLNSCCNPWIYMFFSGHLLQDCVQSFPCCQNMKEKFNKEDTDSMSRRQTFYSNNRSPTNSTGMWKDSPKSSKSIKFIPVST
Description: Calcium flux assay (FLIPR), agonist mode, CHO cells expressing human V1a. Particulars: for EC50: CHO cells stably expressing human V1a, calcium flux, read-out: hV1a EC50.
Text: as §1, with “activation. The stable cell lines were grown in F-12 K Nutrient Mixture (Kaighns Modification), containing 10% foetal bovine serum (FBS), 1% penicillin-streptomycin, 1% L-glutamate, 200 ug/ml Geneticin at 37° C. in a 10% CO2 incubator at 95% humidity.” for “activation.”
as §2, §3

[2] abbreviates: maximum response normalized to endogenous full agonist = 100%.

T2 sequence (P30518 whole entry): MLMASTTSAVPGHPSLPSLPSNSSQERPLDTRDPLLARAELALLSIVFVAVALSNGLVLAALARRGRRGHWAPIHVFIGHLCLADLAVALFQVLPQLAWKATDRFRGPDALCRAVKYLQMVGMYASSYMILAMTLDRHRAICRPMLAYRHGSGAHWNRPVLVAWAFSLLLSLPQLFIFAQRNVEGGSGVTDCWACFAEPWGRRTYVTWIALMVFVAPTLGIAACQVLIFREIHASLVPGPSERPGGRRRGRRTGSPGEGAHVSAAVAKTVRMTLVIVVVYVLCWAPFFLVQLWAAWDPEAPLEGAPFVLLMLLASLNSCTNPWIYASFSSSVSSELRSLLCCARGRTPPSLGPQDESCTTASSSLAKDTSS

As to `CC[C@H](C)[C@@H]1NC(=O)[C@H](Cc2ccc(O)cc2)NC(=O)CNC(=O)CC[C@@H](C(=O)N(C)CC(=O)N[C@@H](Cc2ccccc2)C(=O)NCC(N)=O)NC(=O)[C@H](CC(N)=O)NC(=O)[C@H](CCC(N)=O)NC1=O` [Example 27] (GYIQNE[Sar]FG-NH2; lactam N-6), the values for the half-maximal effective concentration (EC50) (in assay [1]; at human V2 receptor; at human V1a receptor) were 5 nM, 1500 nM and over 10000 nM, respectively. The “hOT efficacy (%)” value in assay [1] came out at 128%. Also, the Emax at human V2 receptor (setting [2]) is 101%.
Turning to `CC[C@H](C)[C@@H]1NC(=O)[C@H](Cc2ccc(O)cc2)NC(=O)CNC(=O)CC[C@@H](C(=O)N(C)CC(=O)N[C@@H](CC2CCCCC2)C(=O)NCC(N)=O)NC(=O)[C@H](CC(N)=O)NC(=O)[C@H](CCC(N)=O)NC1=O` [Example 39] (GYIQNE[Sar][Cha]G-NH2; lactam N-6), the EC50 is 0.4 nM in assay [1], 3710 nM on human V2 receptor and over 27000 nM at human V1a receptor. Also, the Emax amounted to 122% in assay [1] and 111% at human V2 receptor (setting [2]).
`CC[C@H](C)[C@@H]1NC(=O)[C@H](Cc2ccc(N)cc2)NC(=O)CNC(=O)CC[C@@H](C(=O)N(C)CC(=O)N[C@@H](CC(C)C)C(=O)NCC(N)=O)NC(=O)[C@H](CC(N)=O)NC(=O)[C@H](CCC(N)=O)NC1=O` [Example 2] (G[Phe(4-NH2)]IQNE[Sar]LG-NH2; lactam N-6): the EC50 was 9 nM in assay [1], 7910 nM at human V2 receptor and over 27000 nM on human V1a receptor. Also, the “hOT efficacy (%)” value in assay [1] amounted to 112%. Moreover, on human V2 receptor (setting [2]), the Emax is 74%.
The like results for `CC[C@H](C)[C@@H]1NC(=O)[C@H](Cc2ccc(O)cc2)NC(=O)CNC(=O)CC[C@@H](C(=O)N(C)CC(=O)N[C@@H](CO)C(=O)NCC(N)=O)NC(=O)[C@H](CC(N)=O)NC(=O)[C@H](CCC(N)=O)NC1=O` [Example 28] (GYIQNE[Sar]SG-NH2; lactam N-6) were, in that order, 5 nM, 4170 nM, over 10000 nM, 122% and 87%.
With `CC[C@H](C)[C@@H]1NC(=O)[C@H](Cc2ccc(O)cc2)NC(=O)CNC(=O)CC[C@@H](C(=O)N(C)CC(=O)N[C@@H](Cc2ccc(O)cc2)C(=O)NCC(N)=O)NC(=O)[C@H](CC(N)=O)NC(=O)[C@H](CCC(N)=O)NC1=O` [Example 32] (GYIQNE[Sar]YG-NH2; lactam N-6), the EC50 in assay [1] is 4 nM; at human V2 receptor, 1990 nM; at human V1a receptor, over 10000 nM. The Emax in assay [1] was 119%; at human V2 receptor (setting [2]), 106%.
The like results for `CC[C@H](C)[C@@H]1NC(=O)[C@H](Cc2ccc(O)cc2)NC(=O)CNC(=O)CC[C@@H](C(=O)N(C)CC(=O)N[C@@H](CC(C)C)C(=O)NCC(N)=O)NC(=O)[C@H](CC(N)=O)NC(=O)[C@H](CCC(N)=O)NC1=O` [Example 13] (GYIQNE[Sar]LG-NH2; lactam N-6) were, in that order, 0.2 nM, 5110 nM, over 27000 nM, 111% and 97%.
Consider `CC[C@H](C)[C@@H]1NC(=O)[C@H](Cc2ccc(O)cc2)NC(=O)CNC(=O)CC[C@@H](C(=O)N(C)CC(=O)N[C@@H](CCN)C(=O)NCC(N)=O)NC(=O)[C@H](CC(N)=O)NC(=O)[C@H](CCC(N)=O)NC1=O` [Example 30] (GYIQNE[Sar][Dab]G-NH2; lactam N-6), for which the EC50 is 6 nM in assay [1], 142 nM at human V2 receptor and over 10000 nM on human V1a receptor. Also, the Emax in assay [1] was determined as 119%. In addition, at human V2 receptor (setting [2]), the “hV2 efficacy (%)” value stood at 104%.
For the compound `CC[C@H](C)[C@@H]1NC(=O)[C@H](Cc2ccc(O)cc2)NC(=O)CNC(=O)CC[C@@H](C(=O)N(C)CC(=O)N[C@@H](Cc2ccc(N)cc2)C(=O)NCC(N)=O)NC(=O)[C@H](CC(N)=O)NC(=O)[C@H](CCC(N)=O)NC1=O` [Example 1] (GYIQNE[Sar][Phe(4-NH2)]G-NH2; lactam N-6), the EC50 in assay [1] was 10 nM; on human V2 receptor it was 4800 nM; on human V1a receptor, over 27000 nM. Further, in assay [1], the “hOT efficacy (%)” value worked out at 111%. The Emax at human V2 receptor (setting [2]) was 107%.
Turning to `CC[C@H](C)[C@@H]1NC(=O)[C@H](Cc2ccc(O)cc2)NC(=O)CNC(=O)CC[C@@H](C(=O)N2C[C@H](O)C[C@H]2C(=O)N[C@@H](CC(C)C)C(=O)NCC(N)=O)NC(=O)[C@H](CC(N)=O)NC(=O)[C@H](CCC(N)=O)NC1=O` [Example 45] (GYIQNE[Hyp]LG-NH2; lactam N-6), the EC50 is 0.6 nM in assay [1], 3810 nM at human V2 receptor and over 27000 nM at human V1a receptor. In addition, the Emax turned out to be 113% in assay [1] and 91% on human V2 receptor (setting [2]).
For the compound `CC[C@H](C)[C@@H]1NC(=O)[C@H](Cc2ccc(O)cc2)NC(=O)CNC(=O)CC[C@@H](C(=O)NCC(=O)N[C@@H](CC(C)C)C(=O)NCC(N)=O)NC(=O)[C@H](CC(N)=O)NC(=O)[C@H](CCC(N)=O)NC1=O` [Example 6] (GYIQNEGLG-NH2; lactam N-6), in assay [1], the EC50 amounted to 11 nM and the “hOT efficacy (%)” value is 95%. The EC50 on human V1a receptor is over 27000 nM.
Regarding `CC[C@H](C)[C@@H]1NC(=O)[C@H](Cc2ccc(O)cc2)NC(=O)CNC(=O)CC[C@@H](C(=O)N2CCC[C@H]2C(=O)N[C@@H](Cc2ccc(N)cc2)C(=O)NCC(N)=O)NC(=O)[C@H](CC(N)=O)NC(=O)[C@H](CCC(N)=O)NC1=O` [Example 11] (GYIQNEP[Phe(4-NH2)]G-NH2; lactam N-6), in assay [1], the EC50 is 11 nM and the “hOT efficacy (%)” value is 94%. Further, on human V1a receptor, the 50% effective concentration (EC50) was over 27000 nM.
As for `CC[C@H](C)[C@@H]1NC(=O)[C@H](Cc2ccc(O)cc2)NC(=O)CNC(=O)CC[C@@H](C(=O)N2CCC[C@H]2C(=O)N[C@@H](CCCCN)C(=O)NCC(N)=O)NC(=O)[C@H](CC(N)=O)NC(=O)[C@H](CCC(N)=O)NC1=O` [Example 21] (GYIQNEPKG-NH2; lactam N-6), the EC50 in assay [1] amounted to 12 nM; at human V1a receptor it was 32 nM. The “hOT efficacy (%)” value in assay [1] is reported as 105%. Further, at human V1a receptor (setting [2]), the “hV1a efficacy (%)” value is 55%.

For orientation: EC50 means the concentration giving half of the maximal effect.
